Assay [1] has as its system growth-associated protein-43 (GAP-43). The assay is described as follows: PBBI in rats: GAP-43 immunohistochemistry in hippocampus. The assay is classed as in vivo, Sprague-Dawley rats. Conditions: 30 mg/kg oral once daily. The procedure:
The methods for producing PBBI in this Example is the same as described above for Example 26. Adult Sprague-Dawley rats were randomly assigned into three groups: sham (craniotomy only), PBBI+vehicle (i.e. H2O), and PBBI+cG-2-AllylP. cG-2-AllylP (or vehicle) was administered via oral gavage at 30 mg/kg at 30 min post-injury and continued once daily thereafter for 7, 14 or 28 days. At each treatment endpoint, rats were perfused and brains were processed for histological analysis (n=5-6/group/time-point). For detection of axonal sprouting, immunohistochemical detection of growth-associated protein-43 (GAP-43) was employed. Synaptogenesis was determined by immunohistochemistry for synaptophysin (SYN). For histological quantification, the integrated density in the hippocampal region was determined using NIH ImageJ software.

The test system of assay [2] is fmr1-knockout mice and wild-type mice. The experiment in a line: Elevated Plus Maze. The assay is classed as in vivo. The source says:
In another study, we used an “Elevated Plus Maze.” The Elevated Plus Maze test is one of the most widely used tests for measuring anxiety-like hyperactivity in mice. The test is based on the natural aversion of mice for open and elevated areas, as well as on their natural spontaneous exploratory behavior in novel environments. FIG. 23 depicts a photograph of a device used in this study. The apparatus consists of two open arms and two closed arms, crossed in the middle perpendicularly to each other, and a center area. The open arms are more exposed and therefore create more anxiety in the mice. Mice therefore spend more time in the closed arms and visit them more frequently. Mice were given access to all of the arms and were allowed to move freely between them. The number of entries into the open arms, the time spent in the open arms, and time spent in the center were used as indices of open space-induced anxiety.

The subject of a further assay is Akt. The experiment in a line: Phosphorylated AKT by Western blot. The assay is classed as in vivo, mice. Conditions: full brain lysates; fmr1-knockout animals; normalized to GAPDH. The procedure: Phosphorylation levels of ERK1/2 and Akt of full brain lysates were evaluated using Western blots. The mice were sacrificed and the brains removed 12 days after the last injection, and immediately after the last behavioral test. Other studies measured pERK and pAkt in blood lymphocytes. The results of Western analysis were normalized to the amount of GAPDH protein seen in each blot.

Another assay has as its system synaptophysin. The assay is described as follows: Synaptophysin immunohistochemical staining of hippocampus. Conditions: for density of synaptophysin staining: 28 days post-treatment. The assay is classed as in vivo, male Wistar rats. The procedure:
Aged rats (male Wistar rats, 18-20 months old) were divided into four groups: two vehicle-treated (groups 1 and 3) and two G-2-AllylP treated (groups 2 and 4) (all groups n=6-8). Cyclic G-2-AllylP was synthesised by the Department of Medicinal Chemistry and dissolved in normal saline before the treatment. On day 1 a single dose of cyclic G-2-AllylP was given centrally (20 ng/animal, i.c.v.) to the animals in groups 2 and 4; saline was administered to groups 1 and 3. The memory tests using Novel Object Recognition Test started either on day 3 (groups 1 and 2) or 24 (groups 3 and 4) after the treatment. On the completion of the NORT, the rats were killed with an overdose of sodium pentobarbital and were perfused transcardially with normal saline followed by 10% formalin. Tissues collected at day 7 in groups 1 and 2, and at day 28 from groups 3 and 4. The brains were kept in the same fixative for a minimum of 2 days before being processed using a standard paraffin embedding procedure. Briefly, small blocks (10×10×3 mm) of tissue were fixed for up to 24 hrs. The blocks were then infiltrated and embedded with paraffin and cut in ribbons and mounted on slides. Slides were then stored until immunostaining was commenced. Synaptogenesis in brain tissue was examined using immunohistochemical staining.
Synaptophysin is a presynaptic vesicle protein. Its quantitative detection is established as a molecular marker of synaptic density.
Conventional deparaffinisation and rehydration techniques were used to allow the water-based buffers and antibodies to penetrate the tissue slices. Antigen retrieval was used only prior to AMPA receptor (GluR1) staining, i.e. the slides were placed in boiling citrate buffer and allowed to cool.
The following antibodies were used: • i) primary rabbit antibody to NMDA NR1 subunit, at 1:200 concentration in buffer, incubated for 48 hrs (Chemicon—AB1516), followed by Sigma fluorescent secondary antibody (alexaFluor 394), at 1:200 dilution, incubated for 24 hours at 40C. • ii) primary antibody to AMPA GluR1 subunit, at 1:30 concentration in buffer, incubated for 48 hrs (Chemicon—AB1504) followed by 3,3′-diaminobenzidine (DAB) at 1:200 dilution, incubated for 24 hours at 40C. • iii) Primary antibody to mSynaptophysin (Sigma—S5768), at 1:200 concentration in buffer, followed by DAB at 1:200 dilution, incubated for 24 hours at 40C. • iv) Primary antibody to rKrox-24 (Santa Cruz—catalogue number SC-189) at 1:200 concentration in the buffer, followed by anti-rabbit secondary antibody at concentration of 1:200 dilution, incubated for 24 hours at 40C. • y) Antibodies were detected using light microscopy.
We subsequently analysed effect of cG-2AllylP on the levels of synaptophysin staining in CA3 and CA1 regions of the hippocampus.

As for `C=CC[C@]12CCCN1C(=O)CNC2=O` [cG-2-AllylP, (8aS)-Allyl-hexahydropyrrolo[1,2-a]pyrazine-1,4-dione], the “injury-induced reduction in GAP-43 expression” value in assay [1] (7d or 14d post-PBBI) was “no effect on injury-induced reductions”. In assay [1] (28 days post-injury), the “PBBI-induced reduction in GAP-43 expression” value was “attenuated PBBI-induced reductions”. In addition, the “time spent in the closed arm” value was “normalized the time spent in the closed arm” in assay [2] (fmr1-knockout animals) and “about the same amount of time in the closed arm” in assay [2] (wild-type mice). In assay [2] (fmr1-knockout animals), the “time spent in the open arms” value is reported as “normalized the time spend in the open arms”. Further, the “time spent in the center” value in assay [2] (fmr1-knockout mice, p<0.001) is “significantly less time than vehicle-treated fmr1-knockout animals”; in assay [2] (wild-type mice) it was “slightly less time in the center than did vehicle-treated wild-type animals”. In the assay with Akt, the “phosphorylated AKT” value is reported as “about 0.9 UA units”. Also, the “density of synaptophysin staining” value in the assay with synaptophysin (CA1 strata oriens and radiatum) is reported as “clear trend towards”; in the assay on synaptophysin (CA3) it was “significant increase”. Further, the “density of pre-synaptic stain (FIG. 6)” value in the assay on synaptophysin (CA3 region, day 24 post-treatment) is “trend to increase the density of pre-synaptic stain”. For the same molecule, the “density of pre-synaptic stain (FIG. 7)” value in the assay with synaptophysin (stratum oriens of CA1, day 24 post-treatment) is “trend to increase the density of the pre-synaptic stain”. For the same molecule, the “density of pre-synaptic stain (FIG. 8)” value with synaptophysin (stratum radiatum of CA1, day 24 post-treatment) is on record as “increase the density of the pre-synaptic stain”.
